pIC50: −log10 of the molar value.
How the values were obtained:
[1] = Survival of human H209 cells at 50 uM under deem light after 96 hrs by MTT assay relative to control; format: functional; conditions: NCI-H209, 96 h, read-out: Survival
[2] = Survival of human H209 cells at 0.1 uM under deem light after 96 hrs by MTT assay relative to control; format: functional; conditions: NCI-H209, 96 h, read-out: Survival
[3] = Survival of human MDA-MB cells at 100 uM under deem light after 96 hrs by MTT assay relative to control; format: functional; conditions: read-out: Survival
Raji [4] = assay: Cytotoxicity against human Raji cells under deem light after 96 hrs by MTT assay; format: functional, cell-based
[5] = Survival of human MDA-MB cells at 10 uM under deem light after 96 hrs by MTT assay relative to control; format: functional; conditions: read-out: Survival
HeLa [6] = assay: Cytotoxicity against human HeLa cells under deem light after 96 hrs by MTT assay; format: functional, cell-based
NCI-H69 [7] = assay: Cytotoxicity against human H69 cells under deem light after 96 hrs by MTT assay; format: functional, cell-based; conditions: NCI-H69, 96 h
[8] = Survival of human MDA-MB cells at 0.1 uM under deem light after 96 hrs by MTT assay relative to control; format: functional; conditions: read-out: Survival
[9] = Survival of human 2780.9S cells at 10 uM under deem light after 96 hrs by MTT assay relative to control; format: functional; conditions: read-out: Survival
K562 [10] = assay: Survival of human K562 cells at 50 uM under deem light after 96 hrs by MTT assay relative to control; format: functional; conditions: K562, 96 h, read-out: Survival
[11] = Survival of human H209 cells at 100 uM under deem light after 96 hrs by MTT assay relative to control; format: functional; conditions: NCI-H209, 96 h, read-out: Survival
Raji [12] = assay: Survival of human Raji cells at 0.01 uM under deem light after 96 hrs by MTT assay relative to control; format: functional; conditions: read-out: Survival
NCI-H69 [13] = assay: Survival of human H69 cells at 0.01 uM under deem light after 96 hrs by MTT assay relative to control; format: functional; conditions: NCI-H69, 96 h, read-out: Survival
Raji [14] = assay: Survival of human Raji cells at 50 uM under deem light after 96 hrs by MTT assay relative to control; format: functional; conditions: read-out: Survival
NCI-H69 [15] = assay: Survival of human H69 cells at 50 uM under deem light after 96 hrs by MTT assay relative to control; format: functional; conditions: NCI-H69, 96 h, read-out: Survival
HeLa [16] = assay: Survival of human HeLa cells at 50 uM under deem light after 96 hrs by MTT assay relative to control; format: functional; conditions: read-out: Survival
Raji [17] = assay: Survival of human Raji cells at 10 uM under deem light after 96 hrs by MTT assay relative to control; format: functional; conditions: read-out: Survival
K562 [18] = assay: Survival of human K562 cells at 10 uM under deem light after 96 hrs by MTT assay relative to control; format: functional; conditions: K562, 96 h, read-out: Survival
Raji [19] = assay: Survival of human Raji cells at 0.1 uM under deem light after 96 hrs by MTT assay relative to control; format: functional; conditions: read-out: Survival
SiHa [20] = assay: Survival of human SIHA cells at 0.1 uM under deem light after 96 hrs by MTT assay relative to control; format: functional; conditions: read-out: Survival
HeLa [21] = assay: Survival of human HeLa cells at 0.01 uM under deem light after 96 hrs by MTT assay relative to control; format: functional; conditions: read-out: Survival
Daudi = assay: Cytotoxicity against human Daudi cells under deem light after 96 hrs by MTT assay; format: functional, cell-based
SiHa [22] = assay: Survival of human SIHA cells at 50 uM under deem light after 96 hrs by MTT assay relative to control; format: functional; conditions: read-out: Survival
[23] = Survival of human H209 cells at 10 uM under deem light after 96 hrs by MTT assay relative to control; format: functional; conditions: NCI-H209, 96 h, read-out: Survival
[24] = Survival of human 2780.9S cells at 0.1 uM under deem light after 96 hrs by MTT assay relative to control; format: functional; conditions: read-out: Survival
[25] = Survival of human MDA-MB cells at 0.01 uM under deem light after 96 hrs by MTT assay relative to control; format: functional; conditions: read-out: Survival
HeLa [26] = assay: Survival of human HeLa cells at 10 uM under deem light after 96 hrs by MTT assay relative to control; format: functional; conditions: read-out: Survival
Raji [27] = assay: Survival of human Raji cells at 100 uM under deem light after 96 hrs by MTT assay relative to control; format: functional; conditions: read-out: Survival
K562 [28] = assay: Survival of human K562 cells at 100 uM under deem light after 96 hrs by MTT assay relative to control; format: functional; conditions: K562, 96 h, read-out: Survival
[29] = Survival of human 2780.9S cells at 0.01 uM under deem light after 96 hrs by MTT assay relative to control; format: functional; conditions: read-out: Survival
NCI-H69 [30] = assay: Survival of human H69 cells at 0.1 uM under deem light after 96 hrs by MTT assay relative to control; format: functional; conditions: NCI-H69, 96 h, read-out: Survival
[31] = Survival of human 2780.9S cells at 50 uM under deem light after 96 hrs by MTT assay relative to control; format: functional; conditions: read-out: Survival
SiHa [32] = assay: Survival of human SIHA cells at 10 uM under deem light after 96 hrs by MTT assay relative to control; format: functional; conditions: read-out: Survival
HeLa [33] = assay: Survival of human HeLa cells at 0.1 uM under deem light after 96 hrs by MTT assay relative to control; format: functional; conditions: read-out: Survival
K562 [34] = assay: Cytotoxicity against human K562 cells under deem light after 96 hrs by MTT assay; format: functional, cell-based; conditions: K562, 96 h
[35] = Photohemolysis in human RBC in absence of light; format: ADME, cell-based; conditions: erythrocyte
K562 [36] = assay: Survival of human K562 cells at 0.01 uM under deem light after 96 hrs by MTT assay relative to control; format: functional; conditions: K562, 96 h, read-out: Survival
[37] = Survival of human H209 cells at 0.01 uM under deem light after 96 hrs by MTT assay relative to control; format: functional; conditions: NCI-H209, 96 h, read-out: Survival
[38] = Survival of human 2780.9S cells at 100 uM under deem light after 96 hrs by MTT assay relative to control; format: functional; conditions: read-out: Survival
[39] = Cytotoxicity against human MDA-MB cells under deem light after 96 hrs by MTT assay; format: functional, cell-based
K562 [40] = assay: Survival of human K562 cells at 0.1 uM under deem light after 96 hrs by MTT assay relative to control; format: functional; conditions: K562, 96 h, read-out: Survival
[41] = Survival of human MDA-MB cells at 50 uM under deem light after 96 hrs by MTT assay relative to control; format: functional; conditions: read-out: Survival
[42] = Cytotoxicity against human 2780.9S cells under deem light after 96 hrs by MTT assay; format: functional, cell-based
HeLa [43] = assay: Survival of human HeLa cells at 100 uM under deem light after 96 hrs by MTT assay relative to control; format: functional; conditions: read-out: Survival
SiHa [44] = assay: Cytotoxicity against human SIHA cells under deem light after 96 hrs by MTT assay; format: functional, cell-based
NCI-H69 [45] = assay: Survival of human H69 cells at 10 uM under deem light after 96 hrs by MTT assay relative to control; format: functional; conditions: NCI-H69, 96 h, read-out: Survival
NCI-H69 [46] = assay: Survival of human H69 cells at 100 uM under deem light after 96 hrs by MTT assay relative to control; format: functional; conditions: NCI-H69, 96 h, read-out: Survival

Question: Which viability at 50 µM [1] does the source give for `COc1cccc2c1C(=O)c1c(O)c3c(c(O)c1C2=O)C[C@@](O)(C(=O)CO)C[C@@H]3O[C@H]1C[C@H](N)[C@H](O)[C@H](C)O1` [DOXORUBICIN] here?
Answer: Its viability at 50 µM is 5.8%.

Question: And the viability at 0.1 µM [2]?
Answer: The viability at 0.1 µM was 85.6%.

Question: What about the viability at 100 µM [3] of the same compound?
Answer: The viability at 100 µM was 5%.

Question: What about the pIC50 (Raji [4]) of the same compound?
Answer: Its pIC50 is 5.70.

Question: What about the viability at 10 µM [5] of the same compound?
Answer: The viability at 10 µM was 50.5%.

Question: And the pIC50 (HeLa [6])?
Answer: The pIC50 was 5.70.

Question: And the pIC50 (NCI-H69 [7])?
Answer: The pIC50 was 5.52.

Question: What about the viability at 0.1 µM [8] of the same compound?
Answer: Its viability at 0.1 µM is 96.8%.

Question: And the viability at 10 µM [9]?
Answer: Its viability at 10 µM is 56.9%.

Question: What about the viability at 50 µM (K562 [10]) of the same compound?
Answer: Its viability at 50 µM is 9.5%.

Question: And the viability at 100 µM [11]?
Answer: Its viability at 100 µM is 1.5%.

Question: What about the viability at 0.01 µM (Raji [12]) of the same compound?
Answer: The viability at 0.01 µM was 110%.

Question: And the viability at 0.01 µM (NCI-H69 [13])?
Answer: The viability at 0.01 µM was 86.5%.

Question: What about the viability at 50 µM (Raji [14]) of the same compound?
Answer: Its viability at 50 µM is 2.5%.

Question: What about the viability at 50 µM (NCI-H69 [15]) of the same compound?
Answer: Its viability at 50 µM is 16.8%.

Question: What about the viability at 50 µM (HeLa [16]) of the same compound?
Answer: The viability at 50 µM was 7%.

Question: And the viability at 10 µM (Raji [17])?
Answer: Its viability at 10 µM is 8.6%.

Question: And the viability at 10 µM (K562 [18])?
Answer: The viability at 10 µM was 22.1%.

Question: What about the viability at 0.1 µM (Raji [19]) of the same compound?
Answer: Its viability at 0.1 µM is 106%.

Question: And the viability at 0.1 µM (SiHa [20])?
Answer: The viability at 0.1 µM was 72.2%.

Question: What about the viability at 0.01 µM (HeLa [21]) of the same compound?
Answer: Its viability at 0.01 µM is 97.5%.

Question: What about the pIC50 (Daudi) of the same compound?
Answer: Its pIC50 is 6.52.

Question: What about the viability at 50 µM (SiHa [22]) of the same compound?
Answer: Its viability at 50 µM is 3.5%.

Question: And the viability at 10 µM [23]?
Answer: Its viability at 10 µM is 23.1%.

Question: And the viability at 0.1 µM [24]?
Answer: Its viability at 0.1 µM is 105%.

Question: What about the viability at 0.01 µM [25] of the same compound?
Answer: Its viability at 0.01 µM is 121%.

Question: What about the viability at 10 µM (HeLa [26]) of the same compound?
Answer: Its viability at 10 µM is 20.2%.

Question: What about the viability at 100 µM (Raji [27]) of the same compound?
Answer: The viability at 100 µM was 1.1%.

Question: And the viability at 100 µM (K562 [28])?
Answer: The viability at 100 µM was 7.5%.

Question: What about the viability at 0.01 µM [29] of the same compound?
Answer: Its viability at 0.01 µM is 108%.

Question: What about the viability at 0.1 µM (NCI-H69 [30]) of the same compound?
Answer: Its viability at 0.1 µM is 82.2%.

Question: What about the viability at 50 µM [31] of the same compound?
Answer: Its viability at 50 µM is 13.8%.

Question: What about the viability at 10 µM (SiHa [32]) of the same compound?
Answer: The viability at 10 µM was 4.4%.

Question: And the viability at 0.1 µM (HeLa [33])?
Answer: The viability at 0.1 µM was 81.4%.

Question: And the pIC50 (K562 [34])?
Answer: The pIC50 was 6.00.

Question: And the Activity [35]?
Answer: The Activity was “Non-toxic”.

Question: What about the viability at 0.01 µM (K562 [36]) of the same compound?
Answer: Its viability at 0.01 µM is 116%.

Question: And the viability at 0.01 µM [37]?
Answer: The viability at 0.01 µM was 85.6%.

Question: What about the viability at 100 µM [38] of the same compound?
Answer: The viability at 100 µM was 7.4%.

Question: And the pIC50 [39]?
Answer: Its pIC50 is 5.05.

Question: And the viability at 0.1 µM (K562 [40])?
Answer: The viability at 0.1 µM was 100%.

Question: And the viability at 50 µM [41]?
Answer: The viability at 50 µM was 11.8%.

Question: What about the pIC50 [42] of the same compound?
Answer: The pIC50 was 4.82.

Question: And the viability at 100 µM (HeLa [43])?
Answer: The viability at 100 µM was 6.1%.

Question: What about the pIC50 (SiHa [44]) of the same compound?
Answer: Its pIC50 is 6.30.

Question: What about the viability at 10 µM (NCI-H69 [45]) of the same compound?
Answer: The viability at 10 µM was 37.7%.

Question: And the viability at 100 µM (NCI-H69 [46])?
Answer: The viability at 100 µM was 6.6%.

Reference: ChEMBL document CHEMBL1141575, “Preparation and in vitro biological evaluation of tetrapyrrole ethanolamide derivatives as potential anticancer agents” (Bioorg Med Chem Lett, 2008)
